Data set [1] has as its system Mus musculus. Description: Anticonvulsant activity in Kunming mouse assessed as reduction in ScPTZ-induced seizure at 300 mg/kg, ip administered before 30 mins of ScPTZ stimulation. It counts as functional, organism-based.
The species named for data set [2] is Mus musculus. Kind of data set: Inhibition of sodium channel in C57BL/6 mouse primary cortical neurons at 10 uM by manual patch clamp electrophysiology method. (In general: The patch-clamp technique gives a direct electrical read-out from membranes.)
Data set [3] can be described thus: Protective index, ratio of TD50 for neurotoxicity in ip dosed Kunming mouse to ED50 for anticonvulsant activity in ip dosed Kunming mouse. It counts as toxicity, organism-based. To be noted: in vivo, read-out: Ratio TD50/ED50.
The test system of data set [4] is Mus musculus. Kind of data set: Anticonvulsant activity in ip dosed Kunming mouse assessed as reduction in ScPTZ-induced seizure administered before 30 mins of ScPTZ stimulation. It counts as functional. The settings on record: 0.5 h.
Data set [5] relates to Mus musculus. Kind of data set: Anticonvulsant activity in Kunming mouse assessed as reduction in MES-induced seizure at 30 to 300 mg/kg, ip measured after 30 mins. It counts as functional, organism-based.
A further data set deals with Cortical neurone. Kind of data set: Antiepileptic actvity in C57BL/6 mouse Primary cortical neuron assessed as reduction in 4-AP-induced excitability measured for 8 mins by Fluo-8/AM staining based FLIPR assay. To be noted: C57BL/6, Cortical neurone. Type of data set: functional, cell-based.
Data set [6] concerns the target T1, GABA-A receptor; alpha-1/beta-2/gamma-2 (Homo sapiens) (UniProt P14867+P47870+P18507). Description: Activation of recombinant human GABA receptor alpha1beta2gamma2 expressed in CHO cells and measured for 120 secs by FMP dye based FLIPR assay. It counts as cell-based.
Data set [7] addresses T2, GABA-A receptor; alpha-1/beta-2/gamma-2 (Homo sapiens, UniProt P14867+P18507+P47870).
T2 sequence (P14867 whole entry): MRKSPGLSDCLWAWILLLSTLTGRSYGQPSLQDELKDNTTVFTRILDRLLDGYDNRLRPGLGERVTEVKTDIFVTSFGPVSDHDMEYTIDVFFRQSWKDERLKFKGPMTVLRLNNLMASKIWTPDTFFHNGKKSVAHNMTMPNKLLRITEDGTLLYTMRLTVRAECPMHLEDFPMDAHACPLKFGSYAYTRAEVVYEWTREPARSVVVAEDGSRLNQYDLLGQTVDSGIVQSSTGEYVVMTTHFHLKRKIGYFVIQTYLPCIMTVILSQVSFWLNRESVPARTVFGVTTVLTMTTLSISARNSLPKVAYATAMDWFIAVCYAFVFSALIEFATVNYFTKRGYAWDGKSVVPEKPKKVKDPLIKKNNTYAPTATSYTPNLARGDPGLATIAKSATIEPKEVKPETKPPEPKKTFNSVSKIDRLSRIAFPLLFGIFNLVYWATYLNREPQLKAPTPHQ
T2 sequence (P47870 whole entry): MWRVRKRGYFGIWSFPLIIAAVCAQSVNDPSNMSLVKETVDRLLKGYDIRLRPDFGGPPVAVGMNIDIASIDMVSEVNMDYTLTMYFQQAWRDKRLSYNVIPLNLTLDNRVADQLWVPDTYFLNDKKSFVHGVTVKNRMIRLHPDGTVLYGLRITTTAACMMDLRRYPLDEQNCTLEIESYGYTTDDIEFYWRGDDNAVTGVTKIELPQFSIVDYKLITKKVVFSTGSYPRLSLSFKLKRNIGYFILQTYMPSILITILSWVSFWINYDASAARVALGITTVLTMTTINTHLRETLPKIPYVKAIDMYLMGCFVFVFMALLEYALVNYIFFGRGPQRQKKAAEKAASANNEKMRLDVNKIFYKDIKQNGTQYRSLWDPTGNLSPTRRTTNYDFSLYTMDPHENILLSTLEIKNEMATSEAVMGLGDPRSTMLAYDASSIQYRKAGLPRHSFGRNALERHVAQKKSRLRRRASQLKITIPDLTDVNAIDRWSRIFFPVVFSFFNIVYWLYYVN
T2 sequence (P18507 whole entry): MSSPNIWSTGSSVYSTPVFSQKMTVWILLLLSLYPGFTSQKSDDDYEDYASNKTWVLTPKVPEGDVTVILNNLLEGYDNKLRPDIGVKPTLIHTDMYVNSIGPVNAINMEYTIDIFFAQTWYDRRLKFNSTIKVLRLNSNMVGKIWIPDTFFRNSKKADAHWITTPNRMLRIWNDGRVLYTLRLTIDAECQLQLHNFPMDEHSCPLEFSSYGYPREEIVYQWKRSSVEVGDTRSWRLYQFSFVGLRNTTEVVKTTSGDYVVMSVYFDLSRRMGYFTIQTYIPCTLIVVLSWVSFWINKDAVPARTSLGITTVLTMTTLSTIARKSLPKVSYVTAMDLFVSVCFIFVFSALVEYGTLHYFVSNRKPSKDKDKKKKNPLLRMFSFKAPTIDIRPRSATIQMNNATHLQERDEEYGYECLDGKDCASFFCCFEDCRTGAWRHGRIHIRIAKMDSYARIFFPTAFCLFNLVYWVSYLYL
Kind of data set: Positive allosteric modulation of recombinant human GABA receptor alpha1beta2gamma2 expressed in CHO cells at 30 uM in presence of GABA and measured for 120 secs by FMP dye based FLIPR assay (reference value: 0.25 +/- 0.03 uM). Type of data set: cell-based.

In data set [8] the test system is Mus musculus. Description: Anticonvulsant activity in Kunming mouse assessed as reduction in ScPTZ-induced seizure at 30 mg/kg, ip administered before 30 mins of ScPTZ stimulation. Type of data set: functional, organism-based.
Data set [9] has as its target T2, GABA-A receptor; alpha-1/beta-2/gamma-2. Kind of data set: (§1) Activation of recombinant human GABA receptor alpha1beta2gamma2 expressed in CHO cells in presence of GABA and measured for 120 secs by FMP dye based FLIPR assay. Type of data set: cell-based.
The target of data set [10] is T1, GABA-A receptor; alpha-1/beta-2/gamma-2 (Homo sapiens). The data set is described as §1. Type of data set: cell-based.
For data set [11], the species on record is Mus musculus. Description: Inhibition of sodium channel in C57BL/6 mouse Primary cortical neurons at 100 uM by manual patch clamp electrophysiology method.
The test system of data set [12] is Mus musculus. Kind of data set: Anticonvulsant activity in Kunming mouse assessed as reduction in ScPTZ-induced seizure at 100 mg/kg, ip administered before 30 mins of ScPTZ stimulation. Type of data set: functional, organism-based.
The nature of data set [13]: Neurotoxicity in ip dosed Kunming mouse assessed as reduction in equilibrium measured after 30 mins by rotarod test. It counts as toxicity, organism-based. To be noted: in vivo. In general terms: Falling from the rotarod earlier than controls is read as motor impairment.

The source made the active and inactive calls. No cut-off for these calls is given here.

In general, ED50 refers to the midpoint of the dose-response relation. The term IC50 denotes the concentration that inhibits the measured activity by half. For orientation: EC50 means the concentration giving half of the maximal effect. In general, TD50 refers to the dose at which the toxic effect under study appears in half of the subjects. For the compound `Cc1ccc(-c2nc3[nH]c(Cc4ccccc4)cc(=O)n3n2)cc1`, the outcome with Mus musculus [1], with Mus musculus [8] and in the data set on Mus musculus [12] was Active. Moreover, the inhibition result in the data set listed under Mus musculus [2] is “inactive”. Moreover, in data set [3], the selectivity ratio turned out to be 9.09. Further, in the data set on Mus musculus [4], the ED50 stood at 41 mg/kg. Besides, the result (in the data set with Mus musculus [5]; in data set [6]) was inactive. In the data set on Cortical neurone, the half-maximal inhibitory concentration (IC50) was found to be 334 nM. In addition, the EC50 in data set [7] amounted to 240 nM; in data set [9], 12000 nM. In data set [10], the Activity result was “Dose-dependent effect”. The inhibition result in the data set filed under Mus musculus [11] was “Active”. In addition, the TD50 at 0.5 h in [13] was 372 mg/kg.

Consider `O=c1cc(Cc2ccc(Cl)cc2)[nH]c2nc(-c3ccccc3)nn12`, for which the result with Mus musculus [1], in the data set with Mus musculus [8] and in the data set with Mus musculus [12] was Active. Besides, the inhibition entry in the data set listed under Mus musculus [2] and in the data set listed under Mus musculus [11] was “inactive” each time. Moreover, in [3], the selectivity ratio turned out to be 17.2. Besides, the 50% effective dose (ED50) in the data set on Mus musculus [4] was found to be 31.8 mg/kg. The result (with Mus musculus [5]; in data set [6]) was inactive. Besides, the concentration for half-maximal inhibition (IC50) in the data set on Cortical neurone was 452 nM. Besides, the concentration for a half-maximal effect (EC50) in [7] came out at 200 nM; in data set [9], 3080 nM. For the same compound, in data set [10], the Activity result is “Dose-dependent effect”. In data set [13], the TD50 at 0.5 h worked out at 548 mg/kg.

(Values after ChEMBL document CHEMBL4312021, “Discovery of [1,2,4]-triazolo [1,5-a]pyrimidine-7(4H)-one derivatives as positive modulators of GABAA1 receptor with potent anticonvulsant activity and low toxicity” (Eur J Med Chem, 2020).)
